Measured values: US20210403975A1, “PHENOTYPIC ANTIMICROBIAL SUSCEPTIBILITY PROFILING OF UNIDENTIFIED PATHOGENS DIRECTLY FROM PATIENT SAMPLES” (GeneFluidics, Inc., priority 2020, published 2021)
Like-named read-outs stand apart in the source and are kept apart here.

How the values were obtained:
P. aeruginosa ATCC 27853 = assay: MIC of the strain used in the gentamicin/meropenem checkerboard; type: cell-based; conditions: P. aeruginosa ATCC 27853, FIG. 6A legend
Experimental: FIG. 6A-C presents a (A) P. aeruginosa ATCC 27853 5×5 checkerboard with gentamicin (MIC: 1 μg/mL) and meropenem (MIC: 0.5 μg/mL). Assay results after 3.5 hours of incubation at 37° C. (B) A 3×3 checkerboard of gentamicin and meropenem on the same P. aeruginosa strain. (C) An exemplary embodiment of a 96-well checkerboard plate for 66 combinations. ABX are gray-scaled with different intensities to represent different concentrations.
The disclosure provides for the establishment and validation of an automated protocol to assess combinations of two or more antimicrobials to assess antimicrobial susceptibility directly from pediatric patients' specimens during an emergency or unprecedented pandemic. The direct-from-specimen AST protocols discussed above are expanded into a 96-well plate-based checkerboard test to assess 66 preselected combinations of 25 antibiotics as illustrated in FIG. 6C.

CDC69 (resistant strain) = assay: Direct-from-specimen AST, GC ratio trend over increasing meropenem concentrations; type: cell-based; conditions: CDC 69; 4-hour antibiotic exposure; meropenem 1 to 64 μg/mL; agrees with CDC AR Bank MIC
Excerpt: (§1) The direct-from-specimen AST disclosed herein will start with various types of specimens with an unknown concentration of pathogens, from 0 to >10^8 CFU/mL. In order to determine the minimum assay time needed for quantification of RNA transcription at different levels of pathogen concentration, a correlation between the limit of detection (LOD) of the current molecular analysis platform (see FIG. 3 steps 1-17) with the assay turnaround time (TAT) was established (see FIG. 4). […] Target pathogen enrichment and matrix component removal can be carried out by the built-in centrifugal module to achieve lower target LODs with TAT of 42 minutes to 110 minutes. For low-abundance pathogens and early infection diagnostics, additional viability culture steps with TAT of 240 minutes to 330 minutes can be included to achieve an LOD of <10 CFU/mL. The direct-from-specimen AST method disclosed herein will encompass these assay parameters. […] Semi-automatic AST tests directly from whole blood and urine contrived samples were evaluated in FIG. 5 A-C. […]
(§2) Direct-from-specimen AST Analytical Validation Protocol: (1) The user loads the specimen collection tube into the system, which then (2) scans the bar code to determine specimen type. […] The system incubates enzyme, then performs electrochemical reading and (10) AST reporting.

[1] = tested on: CDC77 (susceptible strain); assay: as above; type: cell-based; conditions: 4-hour antibiotic exposure, meropenem 1 to 64 μg/mL, agrees with CDC AR Bank MIC
Excerpt: as §1, §2

CDC KP 522 [2] = assay: Preliminary accelerated colistin AST, 2 hours drug-bug exposure; type: cell-based, Klebsiella pneumoniae; conditions: colistin 0.25-8 μg/mL, 2 hours exposure
Excerpt: (§3) Direct-from-specimen of HR approach. HR is a poorly characterized phenomenon and the lack of consensus-based standards further complicates the study of antibiotic resistance. In addition, its clinical relevance is uncertain due to a lack of a standardized procedure to be implemented into the current workflow in clinical microbiology laboratories. […] FIG. 8C is the HR testing on the system.

KP 525 [3] = assay: as above; type: cell-based, Klebsiella pneumoniae; conditions: colistin 0.25-8 μg/mL, 2 hours exposure
Excerpt: as §3

[4] = tested on: CDC Enterobacter cloacae (EbC) 545; assay: as above; type: cell-based; conditions: 2 hours CST exposure in stripwell, FIG. 8A
Excerpt: as §3

[5] = tested on: CDC Proteus mirabilis (PM) 29; assay: as above; type: cell-based; conditions: CDC PM 29; 2 hours exposure
Excerpt: as §3

[6] = tested on: Klebsiella pneumoniae (KP) 138; assay: as above; type: cell-based; conditions: 2 hours CST exposure in stripwell, FIG. 8A
Excerpt: as §3

[7] = tested on: CDC Enterobacter cloacae (EbC) 545; conditions: CDC EbC 545; cited from earlier work
[8] = tested on: Klebsiella pneumoniae (KP) 138; conditions: cited from earlier work
CDC KP 522 [9] = conditions: cited from earlier work
KP 525 [10] = conditions: cited from earlier work
[11] = tested on: CDC Proteus mirabilis (PM) 29; conditions: CDC PM 29; cited from earlier work
CDC 349 E. coli = conditions: cited from earlier work

## C[C@@H](O)[C@H]1C(=O)N2C(C(=O)O)=C(S[C@@H]3CN[C@H](C(=O)N(C)C)C3)[C@H](C)[C@H]12 [meropenem]
P. aeruginosa ATCC 27853; Pseudomonas aeruginosa, ATCC27853, read-out: MIC
  MIC: 0.5 µg/mL
CDC69 (resistant strain)
  MIC reported from trend of GC ratio: 8 µg/mL
[1]
  MIC reported from trend of GC ratio: < 1 µg/mL

## colistin
CDC KP 522 [2]
  growth response to colistin exposure: not affected
KP 525 [3]
  growth response to colistin exposure: not affected
[4]
  growth response to colistin exposure: clear inhibited growth
[5]
  susceptibility to colistin relative to other strains tested: least susceptible
[6]
  growth response to colistin exposure: clear inhibited growth
[7]
  MIC: ≤ 0.25 µg/mL
[8]
  MIC: 2 µg/mL
CDC KP 522 [9]
  MIC: > 8 µg/mL
KP 525 [10]
  MIC: > 8 µg/mL
[11]
  MIC (listed): > 4 µg/mL
CDC 349 E. coli
  MIC: 2 to 4 µg/mL

## gentamicin
P. aeruginosa ATCC 27853
  MIC: 1 µg/mL
